These are literature values, as cited in patent US8637073B2 (priority 2003, dated 2014).

Molecules are shown by their SMILES.

For this data set the following is noted: maintenance of opioid-dependent pregnant women; Eder et al. 2001.

`CCC(=O)C(CC(C)N(C)C)(c1ccccc1)c1ccccc1` (stereo not shown) [methadone]: the “neonates in which neonatal abstinence syndrome (NAS) is observed” value is on record as 60-80%.
